# Source: PMC3675020, “Repositioning of Verrucosidin, a Purported Inhibitor of Chaperone Protein GRP78, as an Inhibitor of Mitochondrial Electron Transport Chain Complex I” (PLoS ONE, 2013)
# Target: T1, complex I (NADH dehydrogenase) (Mus musculus, UniProt P03888+Q91WD5+Q91YT0+Q9DC70)
# T1 construct: gene Ndufs2; native respiratory complex in intact isolated mouse liver mitochondria; with NADH dehydrogenase [ubiquinone] flavoprotein 2, mitochondrial; NADH-ubiquinone oxidoreductase 75 kDa subunit, mitochondrial; NADH dehydrogenase [ubiquinone] iron-sulfur protein 3, mitochondrial; NADH dehydrogenase [ubiquinone] iron-sulfur protein 8, mitochondrial; NADH-ubiquinone oxidoreductase chain 2; NADH-ubiquinone oxidoreductase chain 3; NADH-ubiquinone oxidoreductase chain 4; NADH-ubiquinone oxidoreductase chain 4L; NADH-ubiquinone oxidoreductase chain 5; NADH-ubiquinone oxidoreductase chain 6
# Test: NADH:DCIP reduction, absorbance […] nm
# Assay type: biochemical
# Conditions: isolated mouse liver mitochondria; DCIP as artificial electron acceptor, glycylglycine pH 8.5; turnover only
smiles,measurement,value
NC(=O)C1=CN([C@@H]2O[C@H](COP(=O)(O)OP(=O)(O)OC[C@H]3O[C@@H](n4cnc5c(N)ncnc54)[C@H](O)[C@@H]3O)[C@@H](O)[C@H]2O)C=CC1 [NADH],"NADH:DCIP reduction, absorbance 600 nm",artificial electron acceptor dichlorophenolindophenol (DCIP) in the presence of NADH
